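1) Cells in 96-well plates. 2) Compound, 48 h, 5 concentrations. 3) Linear interpolation between surrounding doses. 4) Unreached endpoint = highest concentration. GI50 marks 50% less growth. TGI: concentration producing complete growth inhibition.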
Legend:
Test in all cases: inhibition of tumour cell growth, NCI panel, 48 h
CCRF-CEM leukemia = test system: CCRF-CEM leukemia
NCI-H460 lung = test system: NCI-H460 lung
MALME-3M melanoma = test system: MALME-3M melanoma
IGROV1 ovarian = test system: IGROV1 ovarian
HCT-15 colon = test system: HCT-15 colon
LOX IMVI melanoma = test system: LOX IMVI melanoma
MDA-MB-231 breast = test system: MDA-MB-231 breast
OVCAR-5 ovarian = test system: OVCAR-5 ovarian
RXF 393 renal = test system: RXF 393 renal
RPMI-8226 leukemia = test system: RPMI-8226 leukemia
UACC-257 melanoma = test system: UACC-257 melanoma
SK-OV-3 ovarian = test system: SK-OV-3 ovarian
SNB-75 CNS = test system: SNB-75 CNS
CAKI-1 renal = test system: CAKI-1 renal
NCI/ADR-RES ovarian = test system: NCI/ADR-RES ovarian
UACC-62 melanoma = test system: UACC-62 melanoma
DU-145 prostate = test system: DU-145 prostate
OVCAR-4 ovarian = test system: OVCAR-4 ovarian
SK-MEL-5 melanoma = test system: SK-MEL-5 melanoma
UO-31 renal = test system: UO-31 renal
OVCAR-8 ovarian = test system: OVCAR-8 ovarian
A549 NSCLC = test system: A549 NSCLC
NCI-H226 lung = test system: NCI-H226 lung
786-0 renal = test system: 786-0 renal
SF-268 CNS = test system: SF-268 CNS
ACHN renal = test system: ACHN renal
T-47D breast = test system: T-47D breast
MCF7 breast = test system: MCF7 breast
HCC-2998 colon = test system: HCC-2998 colon
HOP-62 NSCLC = test system: HOP-62 NSCLC
NCI-H23 lung = test system: NCI-H23 lung
HOP-92 NSCLC = test system: HOP-92 NSCLC
SN12C renal = test system: SN12C renal
KM12 colon = test system: KM12 colon
HCT-116 colon = test system: HCT-116 colon
SW-620 colon = test system: SW-620 colon
U251 CNS = test system: U251 CNS
EKVX NSCLC = test system: EKVX NSCLC
OVCAR-3 ovarian = test system: OVCAR-3 ovarian
SF-295 CNS = test system: SF-295 CNS
COLO 205 colon = test system: COLO 205 colon
NCI-H522 lung = test system: NCI-H522 lung
MOLT-4 leukemia = test system: MOLT-4 leukemia
K-562 leukemia = test system: K-562 leukemia
BT-549 breast = test system: BT-549 breast
SF-539 CNS = test system: SF-539 CNS
HS 578T breast = test system: HS 578T breast
MDA-MB-435 = test system: MDA-MB-435
HT29 colon = test system: HT29 colon
HL-60(TB) leukemia = test system: HL-60(TB) leukemia
TK-10 renal = test system: TK-10 renal
SK-MEL-28 melanoma = test system: SK-MEL-28 melanoma
SNB-19 CNS = test system: SNB-19 CNS
SK-MEL-2 melanoma = test system: SK-MEL-2 melanoma
PC-3 prostate = test system: PC-3 prostate

SMILES: CSc1nnc(CCSc2ccnc3c(C(F)(F)F)cccc23)o1
- GI50 (CCRF-CEM leukemia): 67.9 µM
- TGI (CCRF-CEM leukemia): > 100 µM
- GI50 (NCI-H460 lung): > 100 µM
- TGI (NCI-H460 lung): > 100 µM
- GI50 (MALME-3M melanoma): > 100 µM
- TGI (MALME-3M melanoma): > 100 µM
- GI50 (IGROV1 ovarian): 83.2 µM
- TGI (IGROV1 ovarian): > 100 µM
- GI50 (HCT-15 colon): > 100 µM
- TGI (HCT-15 colon): > 100 µM
- GI50 (LOX IMVI melanoma): > 100 µM
- TGI (LOX IMVI melanoma): > 100 µM
- GI50 (MDA-MB-231 breast): > 100 µM
- TGI (MDA-MB-231 breast): > 100 µM
- GI50 (OVCAR-5 ovarian): > 100 µM
- TGI (OVCAR-5 ovarian): > 100 µM
- GI50 (RXF 393 renal): 65.3 µM
- TGI (RXF 393 renal): > 100 µM
- GI50 (RPMI-8226 leukemia): 33.5 µM
- TGI (RPMI-8226 leukemia): > 100 µM
- GI50 (UACC-257 melanoma): > 100 µM
- TGI (UACC-257 melanoma): > 100 µM
- GI50 (SK-OV-3 ovarian): > 100 µM
- TGI (SK-OV-3 ovarian): > 100 µM
- GI50 (SNB-75 CNS): 19.6 µM
- TGI (SNB-75 CNS): > 100 µM
- GI50 (CAKI-1 renal): 31.8 µM
- TGI (CAKI-1 renal): > 100 µM
- GI50 (NCI/ADR-RES ovarian): 72.2 µM
- TGI (NCI/ADR-RES ovarian): > 100 µM
- GI50 (UACC-62 melanoma): > 100 µM
- TGI (UACC-62 melanoma): > 100 µM
- GI50 (DU-145 prostate): > 100 µM
- TGI (DU-145 prostate): > 100 µM
- GI50 (OVCAR-4 ovarian): 40.7 µM
- TGI (OVCAR-4 ovarian): > 100 µM
- GI50 (SK-MEL-5 melanoma): 46.1 µM
- TGI (SK-MEL-5 melanoma): > 100 µM
- GI50 (UO-31 renal): 86.8 µM
- TGI (UO-31 renal): > 100 µM
- GI50 (OVCAR-8 ovarian): > 100 µM
- TGI (OVCAR-8 ovarian): > 100 µM
- GI50 (A549 NSCLC): > 100 µM
- TGI (A549 NSCLC): > 100 µM
- GI50 (NCI-H226 lung): > 100 µM
- TGI (NCI-H226 lung): > 100 µM
- GI50 (786-0 renal): 95.3 µM
- TGI (786-0 renal): > 100 µM
- GI50 (SF-268 CNS): 71.5 µM
- TGI (SF-268 CNS): > 100 µM
- GI50 (ACHN renal): > 100 µM
- TGI (ACHN renal): > 100 µM
- GI50 (T-47D breast): 24.9 µM
- TGI (T-47D breast): > 100 µM
- GI50 (MCF7 breast): > 100 µM
- TGI (MCF7 breast): > 100 µM
- GI50 (HCC-2998 colon): 64.8 µM
- TGI (HCC-2998 colon): > 100 µM
- GI50 (HOP-62 NSCLC): 51.7 µM
- TGI (HOP-62 NSCLC): > 100 µM
- GI50 (NCI-H23 lung): > 100 µM
- TGI (NCI-H23 lung): > 100 µM
- GI50 (HOP-92 NSCLC): 18.1 µM
- TGI (HOP-92 NSCLC): > 100 µM
- GI50 (SN12C renal): > 100 µM
- TGI (SN12C renal): > 100 µM
- GI50 (KM12 colon): > 100 µM
- TGI (KM12 colon): > 100 µM
- GI50 (HCT-116 colon): 66.5 µM
- TGI (HCT-116 colon): > 100 µM
- GI50 (SW-620 colon): > 100 µM
- TGI (SW-620 colon): > 100 µM
- GI50 (U251 CNS): > 100 µM
- TGI (U251 CNS): > 100 µM
- GI50 (EKVX NSCLC): 9.21 µM
- TGI (EKVX NSCLC): > 100 µM
- GI50 (OVCAR-3 ovarian): 91.9 µM
- TGI (OVCAR-3 ovarian): > 100 µM
- GI50 (SF-295 CNS): 59.8 µM
- TGI (SF-295 CNS): > 100 µM
- GI50 (COLO 205 colon): > 100 µM
- TGI (COLO 205 colon): > 100 µM
- GI50 (NCI-H522 lung): > 100 µM
- TGI (NCI-H522 lung): > 100 µM
- GI50 (MOLT-4 leukemia): 27.7 µM
- TGI (MOLT-4 leukemia): > 100 µM
- GI50 (K-562 leukemia): 47.3 µM
- TGI (K-562 leukemia): > 100 µM
- GI50 (BT-549 breast): 31.4 µM
- TGI (BT-549 breast): > 100 µM
- GI50 (SF-539 CNS): 60.6 µM
- TGI (SF-539 CNS): > 100 µM
- GI50 (HS 578T breast): 18 µM
- TGI (HS 578T breast): 73.2 µM
- GI50 (MDA-MB-435): > 100 µM
- TGI (MDA-MB-435): > 100 µM
- GI50 (HT29 colon): > 100 µM
- TGI (HT29 colon): > 100 µM
- GI50 (HL-60(TB) leukemia): 55.1 µM
- TGI (HL-60(TB) leukemia): > 100 µM
- GI50 (TK-10 renal): 70.1 µM
- TGI (TK-10 renal): > 100 µM
- GI50 (SK-MEL-28 melanoma): > 100 µM
- TGI (SK-MEL-28 melanoma): > 100 µM
- GI50 (SNB-19 CNS): 61.6 µM
- TGI (SNB-19 CNS): > 100 µM
- GI50 (SK-MEL-2 melanoma): > 100 µM
- TGI (SK-MEL-2 melanoma): > 100 µM
- GI50 (PC-3 prostate): 88.4 µM
- TGI (PC-3 prostate): > 100 µM

Source: PubChem BioAssay (NCI)
